pIC50: −log10 of the molar value. Blank lines part the entries; values can stand above or below the compound they belong to.
Tested on: PDC 899932-113-R3-J6 complex spheroid viability
Assay: Anticancer human tumor 899932-113-R3-J6-PDC patient-derived melanoma cell line growth inhibition [RAS]
Settings: for pIC50: curve of first compound; for viability, T/C: stronger effect = lower value
Procedure, shortened: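 Multi-cell-type spheroids: tumor cells plus HUVEC endothelial cells and mesenchymal stem cells. RAS-pathway inhibitors were combined with targeted agents, each dosed in half-log steps down from clinical Cmax, or from 10 microM when Cmax was unknown.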

[1] = second compound 0.0316 µM, first compound 0.00316 µM
[2] = second compound 0.0316 µM, first compound 0.01 µM
[3] = second compound 0.0316 µM, first compound 0.0316 µM
[4] = second compound 0.0316 µM, first compound 0.1 µM
[5] = second compound 0.0316 µM, first compound 0.316 µM
[6] = second compound 0.0316 µM, first compound 1 µM
[7] = second compound 0.1 µM, first compound 0.00316 µM
[8] = second compound 0.1 µM, first compound 0.01 µM
[9] = second compound 0.1 µM, first compound 0.0316 µM
[10] = second compound 0.1 µM, first compound 0.1 µM
[11] = second compound 0.1 µM, first compound 0.316 µM
[12] = second compound 0.1 µM, first compound 1 µM
[13] = second compound 0.316 µM, first compound 0.00316 µM
[14] = second compound 0.316 µM, first compound 0.01 µM
[15] = second compound 0.316 µM, first compound 0.0316 µM
[16] = second compound 0.316 µM, first compound 0.1 µM
[17] = second compound 0.316 µM, first compound 0.316 µM
[18] = second compound 0.316 µM, first compound 1 µM
[19] = second compound 1 µM, first compound 0.00316 µM
[20] = second compound 1 µM, first compound 0.01 µM
[21] = second compound 1 µM, first compound 0.0316 µM
[22] = second compound 1 µM, first compound 0.1 µM
[23] = second compound 1 µM, first compound 0.316 µM
[24] = second compound 1 µM, first compound 1 µM
[25] = second compound 0.0316 µM, first compound 0.000949 µM
[26] = second compound 0.0316 µM, first compound 0.003 µM
[27] = second compound 0.0316 µM, first compound 0.00949 µM
[28] = second compound 0.0316 µM, first compound 0.03 µM
[29] = second compound 0.0316 µM, first compound 0.0949 µM
[30] = second compound 0.0316 µM, first compound 0.3 µM
[31] = second compound 0.1 µM, first compound 0.000949 µM
[32] = second compound 0.1 µM, first compound 0.003 µM
[33] = second compound 0.1 µM, first compound 0.00949 µM
[34] = second compound 0.1 µM, first compound 0.03 µM
[35] = second compound 0.1 µM, first compound 0.0949 µM
[36] = second compound 0.1 µM, first compound 0.3 µM
[37] = second compound 0.316 µM, first compound 0.000949 µM
[38] = second compound 0.316 µM, first compound 0.003 µM
[39] = second compound 0.316 µM, first compound 0.00949 µM
[40] = second compound 0.316 µM, first compound 0.03 µM
[41] = second compound 0.316 µM, first compound 0.0949 µM
[42] = second compound 0.316 µM, first compound 0.3 µM
[43] = second compound 1 µM, first compound 0.000949 µM
[44] = second compound 1 µM, first compound 0.003 µM
[45] = second compound 1 µM, first compound 0.00949 µM
[46] = second compound 1 µM, first compound 0.03 µM
[47] = second compound 1 µM, first compound 0.0949 µM
[48] = second compound 1 µM, first compound 0.3 µM
[49] = second compound 3.16 µM, first compound 0.000949 µM
[50] = second compound 3.16 µM, first compound 0.003 µM
[51] = second compound 3.16 µM, first compound 0.00949 µM
[52] = second compound 3.16 µM, first compound 0.03 µM
[53] = second compound 3.16 µM, first compound 0.0949 µM
[54] = second compound 3.16 µM, first compound 0.3 µM
[55] = second compound 10 µM, first compound 0.000949 µM
[56] = second compound 10 µM, first compound 0.003 µM
[57] = second compound 10 µM, first compound 0.00949 µM
[58] = second compound 10 µM, first compound 0.03 µM
[59] = second compound 10 µM, first compound 0.0949 µM
[60] = second compound 10 µM, first compound 0.3 µM
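Throughout, for viability, T/C: spheroids exposed to agents for seven days before readout; 100% = DMSO vehicle control wells.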

pIC50 (second compound 0.0316 µM): < 6.00 | pIC50 (second compound 0.1 µM): < 6.00 | pIC50 (second compound 0.316 µM): < 6.00 | pIC50 (second compound 1 µM): < 6.00 | pIC50 (second compound 3.16 µM): < 6.00 | pIC50 (second compound 10 µM): < 6.00
Compound: C=CC(=O)N1CCN(c2nc(OCC3CCCN3C)nc3c(F)c(-c4nc(N)cc(C)c4C(F)(F)F)c(Cl)cc23)C(C)C1 (stereo not drawn) + C#Cc1c(F)ccc2cc(O)cc(-c3ncc4c(N5CC6CCC(C5)N6)nc(OCC56CCCN5CC(F)C6)nc4c3F)c12
viability, T/C [1]: 116% | viability, T/C [2]: 107% | viability, T/C [3]: 101% | viability, T/C [4]: 108% | viability, T/C [5]: 110% | viability, T/C [6]: 104% | viability, T/C [7]: 112% | viability, T/C [8]: 106% | viability, T/C [9]: 105% | viability, T/C [10]: 117% | viability, T/C [11]: 111% | viability, T/C [12]: 106% | viability, T/C [13]: 112% | viability, T/C [14]: 115% | viability, T/C [15]: 107% | viability, T/C [16]: 108% | viability, T/C [17]: 117% | viability, T/C [18]: 112% | viability, T/C [19]: 120% | viability, T/C [20]: 108% | viability, T/C [21]: 115% | viability, T/C [22]: 112% | viability, T/C [23]: 125% | viability, T/C [24]: 102% | viability, T/C (second compound 3.16 µM, first compound 0.00316 µM): 129% | viability, T/C (second compound 3.16 µM, first compound 0.01 µM): 113% | viability, T/C (second compound 3.16 µM, first compound 0.0316 µM): 120% | viability, T/C (second compound 3.16 µM, first compound 0.1 µM): 133% | viability, T/C (second compound 3.16 µM, first compound 0.316 µM): 124% | viability, T/C (second compound 3.16 µM, first compound 1 µM): 110% | viability, T/C (second compound 10 µM, first compound 0.00316 µM): 118% | viability, T/C (second compound 10 µM, first compound 0.01 µM): 115% | viability, T/C (second compound 10 µM, first compound 0.0316 µM): 122% | viability, T/C (second compound 10 µM, first compound 0.1 µM): 125% | viability, T/C (second compound 10 µM, first compound 0.316 µM): 110% | viability, T/C (second compound 10 µM, first compound 1 µM): 102%

pIC50 (second compound 0.0316 µM): 7.79 | pIC50 (second compound 0.1 µM): 7.82 | pIC50 (second compound 0.316 µM): 7.78 | pIC50 (second compound 1 µM): 7.80 | pIC50 (second compound 3.16 µM): 7.72 | pIC50 (second compound 10 µM): 7.68
Compound: CC1(C)CCC(Nc2ncc(C(F)(F)F)c(-c3c[nH]c4c(P(C)(C)=O)c(C#N)ccc34)n2)CN1 (stereo not drawn) + C#Cc1c(F)ccc2cc(O)cc(-c3ncc4c(N5CC6CCC(C5)N6)nc(OCC56CCCN5CC(F)C6)nc4c3F)c12
viability, T/C [25]: 100% | viability, T/C [26]: 82.4% | viability, T/C [27]: 57.3% | viability, T/C [28]: 45.7% | viability, T/C [29]: 13.2% | viability, T/C [30]: 9.56% | viability, T/C [31]: 97.2% | viability, T/C [32]: 79.1% | viability, T/C [33]: 56.9% | viability, T/C [34]: 42.8% | viability, T/C [35]: 14.3% | viability, T/C [36]: 7.89% | viability, T/C [37]: 102% | viability, T/C [38]: 84.9% | viability, T/C [39]: 53.5% | viability, T/C [40]: 47.5% | viability, T/C [41]: 15.9% | viability, T/C [42]: 11.3% | viability, T/C [43]: 104% | viability, T/C [44]: 79.4% | viability, T/C [45]: 58% | viability, T/C [46]: 45.5% | viability, T/C [47]: 13.5% | viability, T/C [48]: 9.51% | viability, T/C [49]: 112% | viability, T/C [50]: 84.9% | viability, T/C [51]: 64.6% | viability, T/C [52]: 47.1% | viability, T/C [53]: 13.6% | viability, T/C [54]: 8.79% | viability, T/C [55]: 108% | viability, T/C [56]: 87.6% | viability, T/C [57]: 55.1% | viability, T/C [58]: 58.9% | viability, T/C [59]: 11.1% | viability, T/C [60]: 6.89%

pIC50 (second compound 0.0316 µM): 7.93 | pIC50 (second compound 0.1 µM): 7.68 | pIC50 (second compound 0.316 µM): 7.44 | pIC50 (second compound 1 µM): 7.43 | pIC50 (second compound 3.16 µM): 7.48 | pIC50 (second compound 10 µM): 7.49
Compound: CCc1c2c(nc3ccc(O)cc13)-c1cc3c(c(=O)n1C2)COC(=O)[C@]3(O)CC + C#Cc1c(F)ccc2cc(O)cc(-c3ncc4c(N5CC6CCC(C5)N6)nc(OCC56CCCN5CC(F)C6)nc4c3F)c12
viability, T/C [25]: 108% | viability, T/C [26]: 63.5% | viability, T/C [27]: 56.8% | viability, T/C [28]: 45.1% | viability, T/C [29]: 41.5% | viability, T/C [30]: 34.2% | viability, T/C [31]: 85.7% | viability, T/C [32]: 69.6% | viability, T/C [33]: 50.6% | viability, T/C [34]: 50.2% | viability, T/C [35]: 44.5% | viability, T/C [36]: 33.2% | viability, T/C [37]: 81.2% | viability, T/C [38]: 74.3% | viability, T/C [39]: 54% | viability, T/C [40]: 54% | viability, T/C [41]: 42.6% | viability, T/C [42]: 35.2% | viability, T/C [43]: 91.7% | viability, T/C [44]: 74% | viability, T/C [45]: 63% | viability, T/C [46]: 52.2% | viability, T/C [47]: 43.3% | viability, T/C [48]: 32.2% | viability, T/C [49]: 99% | viability, T/C [50]: 74.5% | viability, T/C [51]: 60% | viability, T/C [52]: 54.2% | viability, T/C [53]: 44.9% | viability, T/C [54]: 33.5% | viability, T/C [55]: 101% | viability, T/C [56]: 71% | viability, T/C [57]: 66.8% | viability, T/C [58]: 47.3% | viability, T/C [59]: 47.9% | viability, T/C [60]: 33.9%

pIC50 (second compound 0.00316 µM): < 6.00 | pIC50 (second compound 0.01 µM): < 6.00 | pIC50 (second compound 0.0316 µM): < 6.00 | pIC50 (second compound 0.1 µM): < 6.00 | pIC50 (second compound 0.316 µM): < 6.00 | pIC50 (second compound 1 µM): < 6.00
Compound: C=CC(=O)Nc1cc(Nc2nccc(-c3cn(C)c4ccccc34)n2)c(OC)cc1N(C)CCN(C)C + C=CC(=O)N1CCN(c2nc(OCC3CCCN3C)nc3c(F)c(-c4nc(N)cc(C)c4C(F)(F)F)c(Cl)cc23)C(C)C1
viability, T/C (second compound 0.00316 µM, first compound 0.00316 µM): 103% | viability, T/C (second compound 0.00316 µM, first compound 0.01 µM): 93.5% | viability, T/C (second compound 0.00316 µM, first compound 0.0316 µM): 101% | viability, T/C (second compound 0.00316 µM, first compound 0.1 µM): 99.1% | viability, T/C (second compound 0.00316 µM, first compound 0.316 µM): 101% | viability, T/C (second compound 0.00316 µM, first compound 1 µM): 82.8% | viability, T/C (second compound 0.01 µM, first compound 0.00316 µM): 98.9% | viability, T/C (second compound 0.01 µM, first compound 0.01 µM): 99.4% | viability, T/C (second compound 0.01 µM, first compound 0.0316 µM): 98.7% | viability, T/C (second compound 0.01 µM, first compound 0.1 µM): 101% | viability, T/C (second compound 0.01 µM, first compound 0.316 µM): 101% | viability, T/C (second compound 0.01 µM, first compound 1 µM): 92.2% | viability, T/C [1]: 106% | viability, T/C [2]: 101% | viability, T/C [3]: 92.9% | viability, T/C [4]: 107% | viability, T/C [5]: 107% | viability, T/C [6]: 82% | viability, T/C [7]: 110% | viability, T/C [8]: 95% | viability, T/C [9]: 112% | viability, T/C [10]: 97.7% | viability, T/C [11]: 96.4% | viability, T/C [12]: 99.6% | viability, T/C [13]: 112% | viability, T/C [14]: 103% | viability, T/C [15]: 101% | viability, T/C [16]: 107% | viability, T/C [17]: 102% | viability, T/C [18]: 89.1% | viability, T/C [19]: 98.4% | viability, T/C [20]: 97.2% | viability, T/C [21]: 91.8% | viability, T/C [22]: 94.5% | viability, T/C [23]: 105% | viability, T/C [24]: 78.8%

Source: PubChem BioAssay AID2060895 (Molecular Pharmacology Branch, DTP, NCI, 2025)
